Reference: PMC9959269, “Pyrrolyl and Indolyl α-γ-Diketo Acid Derivatives Acting as Selective Inhibitors of Human Carbonic Anhydrases IX and XII” (Pharmaceuticals, 2023)
“And” between values parts separate entries of the source, which are not always exact repeats. Equal entries are not always repeated.

Legend:
hCA I = target: T1, hCA I (Homo sapiens, UniProt P00915); assay: Stopped flow CO2 hydrase assay, hCA I inhibition; format: biochemical; conditions: stopped flow technique, means ± SEM of 3 different assays, recombinant hCA I; for Ki: read-out: Ki CA I
T1 construct: made in house
Description: (§1) An Applied Photophysics stopped-flow instrument has been used for assaying the CA catalyzed CO2 hydration activity. Phenol red (at a concentration of 0.2 mM) has been used as an indicator, working at the absorbance maximum of 557 nm, with 20 mM Hepes (pH 7.5) as buffer and 20 mM Na2SO4 (for maintaining constant the ionic strength), following the initial rates of the CA-catalyzed CO2 hydration reaction for a period of 10−100 s. The CO2 concentrations ranged from 1.7 to 17 mM for the determination of the kinetic parameters and inhibition constants. […] The uncatalyzed rates were determined in the same manner and subtracted from the total observed rates. Stock solutions of inhibitor (0.1 mM) were prepared in distilled−deionized water and dilutions up to 0.01 nM were performed thereafter with the assay buffer. Inhibitor and enzyme solutions were preincubated together for 15 min at room temperature before assay to allow for the formation of the E−I complex. The inhibition constants were obtained by nonlinear least-squares methods using PRISM 3 and the Cheng−Prusoff equation, as reported earlier, and they represent the mean from at least three different determinations. […] All hCA isoforms were recombinant ones obtained in-house as reported earlier.

hCA II = target: T2, hCA II (Homo sapiens, UniProt P00918); assay: Stopped flow CO2 hydrase assay, hCA II inhibition; format: biochemical; conditions: stopped flow technique; means ± SEM of 3 different assays; recombinant hCA II; read-out: Ki CA II
T2 construct: made in house
Description: as §1

hCA IX = target: T3, hCA IX (Homo sapiens, UniProt Q16790); assay: Stopped flow CO2 hydrase assay, hCA IX inhibition; format: biochemical; conditions: for Ki: stopped flow technique, means ± SEM of 3 different assays, recombinant hCA IX, read-out: Ki CA IX; for Selectivity for CA IX and XII over hCAs I and II: from Ki values
T3 construct: made in house
Description: as §1

hCA XII = target: T4, hCA XII (Homo sapiens, UniProt O43570); assay: Stopped flow CO2 hydrase assay, hCA XII inhibition; format: biochemical; conditions: for Ki: stopped flow technique, means ± SEM of 3 different assays, recombinant hCA XII, read-out: Ki CA XII
T4 construct: made in house
Description: as §1

[1] = tested on: triple negative breast cancer MDA-MB231; assay: In vitro proliferation assay (sulforhodamine B), MDA-MB231; format: cell-based; conditions: Homo sapiens, MDA-MB-231, ± SD
Description: (§2) The effects of selected compounds were also examined on the proliferation of four cell lines from different human solid tumors overexpressing hCA isoforms IX and XII: triple negative breast cancer MDA-MB231, colon carcinoma HT-29, tongue squamous carcinoma SCC-15 and pharynx squamous carcinoma FaDu. The cell lines were treated with 5, 10, 20, 50, 100 µM of each single compound for 24 and 48 h. In parallel, the proliferation assay was performed also on HaCaT, a human non-transformed keratinocyte cell line, with each compound used at the same concentrations and times already indicated. The median values from three different proliferation assays for each compound and for each cell line were calculated and their significance was evaluated.
(§3) The following human tumor cell lines were utilized in the present study: triple-negative breast cancer MDA-MB231, colon carcinoma HT-29, tongue squamous cell carcinoma SCC-15 and pharynx squamous cell carcinoma FaDu. In addition, a spontaneously transformed keratinocyte cell line from human skin HaCaT was used as control of non-transformed cells. All cell lines were purchased from the American Type Culture Collection (Manassas, VA, USA).
(§4) The cell lines were grown in RPMI 1640 medium supplemented with 10% fetal calf serum (FCS), 2 mM glutamine and 50 U/mL penicillin–streptomycin.
(§5) All compounds were solubilized in dimethylsulfoxide (DMSO) (Sigma) for a 10 mM stock solution and utilized to final concentrations from 5 to 100 μM for 24 and 48 h. Control cells were treated with equivalent amounts of DMSO in every experiment.
(§6) To determine cytotoxicity, a sulforhodamine B colorimetric assay was performed: 5 × 10^3 cells were plated on 96-well plates, grown for 24 h and treated with different concentrations of each compound for 24 and 48 h. Cells were then fixed with 50% trichloroacetic acid for 1 h at 4 °C and stained for 30 min (min) at room temperature (RT) with 0.4% sulforhodamine B in 1% acetic acid. Excess dye was removed by washing four times with 1% acetic acid. Protein-bound dye was dissolved in 10 mM Tris pH 10 and optical density was determined at 510 nm using a microplate reader.

colon carcinoma HT-29 = assay: In vitro proliferation assay (sulforhodamine B), HT-29; format: cell-based; conditions: Homo sapiens, ± SD
Description: as §2, §3, §4, §5, §6

[2] = tested on: pharynx squamous carcinoma FaDu; assay: In vitro proliferation assay (sulforhodamine B), FaDu; format: cell-based; conditions: Homo sapiens, ± SD
Description: as §2, §3, §4, §5, §6

[3] = tested on: tongue squamous carcinoma SCC-15; assay: In vitro proliferation assay (sulforhodamine B), SCC-15; format: cell-based; conditions: Homo sapiens, ± SD
Description: as §2, §3, §4, §5, §6

HaCaT = assay: In vitro proliferation assay (sulforhodamine B), HaCaT non-transformed keratinocytes; format: cell-based, human; conditions: 24 and 48 h, no effect except at a very high concentration, above 100 µM
Description: as §2
The following human tumor cell lines were utilized in the present study: triple-negative breast cancer MDA-MB231, colon carcinoma HT-29, tongue squamous cell carcinoma SCC-15 and pharynx squamous cell carcinoma FaDu. […]
To determine cytotoxicity, a sulforhodamine B colorimetric assay was performed: 5 × 10^3 cells were plated on 96-well plates, grown for 24 h and treated with different concentrations of each compound for 24 and 48 h. […] Protein-bound dye was dissolved in 10 mM Tris pH 10 and optical density was determined at 510 nm using a microplate reader.

[4] = tested on: MDA-MB231, HT-29, SCC-15 and FaDu tumor cell lines; assay: In vitro proliferation assay, four tumor cell lines taken together; format: cell-based, human; conditions: for Lowest concentration determining a significant decrease in alive cells: tumor cell lines, 24 h; for Antiproliferative activity (in words): four tumor cell lines, 5-100 µM, 24 and 48 h
Description: as §2, §3, §4, §5, §6

T4 sequence (O43570 25-354): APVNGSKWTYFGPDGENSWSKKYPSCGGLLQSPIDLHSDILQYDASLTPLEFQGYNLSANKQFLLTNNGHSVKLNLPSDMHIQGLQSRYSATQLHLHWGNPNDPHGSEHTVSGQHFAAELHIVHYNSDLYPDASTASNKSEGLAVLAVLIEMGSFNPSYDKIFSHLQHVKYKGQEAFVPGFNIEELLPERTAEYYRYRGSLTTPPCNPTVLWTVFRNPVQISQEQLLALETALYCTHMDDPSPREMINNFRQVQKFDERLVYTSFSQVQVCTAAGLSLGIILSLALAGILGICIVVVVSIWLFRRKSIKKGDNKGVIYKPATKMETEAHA
T1 sequence (P00915 whole entry): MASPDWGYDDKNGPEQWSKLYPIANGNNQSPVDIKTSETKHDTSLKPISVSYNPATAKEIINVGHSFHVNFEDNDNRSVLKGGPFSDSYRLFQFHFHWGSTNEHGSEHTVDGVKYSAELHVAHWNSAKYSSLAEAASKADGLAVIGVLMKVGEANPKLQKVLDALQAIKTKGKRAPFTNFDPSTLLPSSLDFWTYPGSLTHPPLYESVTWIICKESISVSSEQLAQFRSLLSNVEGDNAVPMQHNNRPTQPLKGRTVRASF

SMILES	Ki (hCA I) [µM]	Ki (hCA II) [µM]	Ki (hCA IX)	Ki (hCA XII)	EC50 ([1]; 24 h treatment) [µM]	EC50 ([1]; 48 h treatment) [µM]	EC50 (colon carcinoma HT-29; 24 h treatment) [µM]	EC50 (colon carcinoma HT-29; 48 h treatment) [µM]	EC50 ([2]; 24 h treatment) [µM]	EC50 ([2]; 48 h treatment) [µM]	EC50 ([3]; 24 h treatment) [µM]	EC50 ([3]; 48 h treatment) [µM]	Effect on proliferation of HaCaT cells (HaCaT)	Lowest concentration determining a significant decrease in alive cells [4] [µM]	Ki CA I (hCA I)	Selectivity for CA IX and XII over hCAs I and II (hCA IX)	Increase in activity against CA IX relative to diketobutanoic analogue 3a (hCA IX; ratio of Ki values, 5 vs 3a)	Increase in activity against CA XII relative to diketobutanoic analogue 3a (hCA XII; ratio of Ki values, 5 vs 3a)	Antiproliferative activity (in words) [4]
CCOC(=O)/C(O)=C/C(=O)/C=C/c1cccn1Cc1ccc(C)cc1 [Compound 2c]	> 100	> 100	90.8 ± 4.6 µM	89.3 ± 5.3 µM															
COc1ccc(Cn2cc(/C=C/C(=O)/C=C(\O)C(=O)O)c3ccccc32)cc1 [Compound 7]	91.7 ± 7.5	36.5 ± 1.9	1.1 ± 0.1 µM	0.8 µM and 0.83 µM	21 ± 1.8	12 ± 1.1	47 ± 5	30 ± 2.8	51 ± 4.7	22 ± 1.2	48 ± 3.9	17 ± 0.8	no significant effect	10					
CCOC(=O)/C(O)=C/C(=O)/C=C/c1cccn1Cc1ccc(F)cc1 [Compound 2a]	> 100	> 100	90.1 ± 4.7 µM	83.6 ± 5.4 µM															
O=C(/C=C(\O)C(=O)O)/C=C/c1cc(C(=O)c2ccccc2)c[nH]1 [Compound 1d]	72.5 ± 5.1	38.7 ± 2	1.4 ± 0.1 µM	1.1 ± 0.1 µM															
O=C(O)/C(O)=C/C(=O)c1ccn(Cc2ccc(F)cc2)c1 [Compound 3b]	50.9 ± 4.1	54.7 ± 2.9	18.4 ± 1.2 µM	7.9 ± 0.6 µM															
O=C(O)/C(O)=C/C(=O)c1cn(Cc2ccc(F)cc2)cc1-c1ccccc1 [Compound 3a]	> 100	77.6 ± 4.5	1.4 ± 0.1 µM	0.3 µM and 0.33 µM											inactive				
CCOC(=O)/C(O)=C/C(=O)/C=C/c1cn(Cc2ccc(OC)cc2)c2ccccc12 [Compound 8]	> 100	> 100	80.1 ± 5.3 µM	92 ± 6 µM	23 ± 1.6	17 ± 0.9	75 ± 8.8	44 ± 2.3	41 ± 3.3	18 ± 0.7	44 ± 4.1	21 ± 1.9	no significant effect	10					
CCOC(=O)/C(O)=C/C(=O)/C=C/c1cn(Cc2ccc(F)cc2)cc1-c1ccccc1 [Compound 6]	> 100	> 100	43.1 ± 2.5 µM	89 ± 6.1 µM															
CCOC(=O)/C(O)=C/C(=O)c1cn(Cc2ccc(F)cc2)cc1-c1ccccc1 [Compound 4a]	> 100	> 100	57.3 ± 2.8 µM	89.2 ± 5.2 µM															
CCOC(=O)/C(O)=C/C(=O)c1ccn(Cc2ccc(F)cc2)c1 [Compound 4b]	> 100	> 100	> 100 µM	71.5 ± 4.3 µM															
CCOC(=O)/C(O)=C/C(=O)/C=C/c1cccn1Cc1ccccc1F [Compound 2b]	> 100	> 100	23.7 ± 1.6 µM	80.5 ± 6.1 µM															
O=C(/C=C(\O)C(=O)O)/C=C/c1cccn1Cc1ccc(F)cc1 [Compound 1a]	81.9 ± 6	14.6 ± 0.9	2 ± 0.1 µM	1 ± 0.1 µM															
O=C(/C=C(\O)C(=O)O)/C=C/c1cn(Cc2ccc(F)cc2)cc1-c1ccccc1 [Compound 5]	> 100	62.5 ± 3.6	0.3 µM and 0.32 µM	0.2 µM and 0.24 µM	120 ± 15.7	105 ± 13.2	98 ± 11	21 ± 1.6	103 ± 11.4	23 ± 2.8	102 ± 9.7	58 ± 6.2			inactive	two orders of magnitude selective	more than 4 times	about 1.5 times	significant antiproliferative activity
O=C(/C=C(\O)C(=O)O)/C=C/c1cccn1Cc1ccccc1F [Compound 1b]	89.6 ± 4.8	14 ± 0.8	2.5 ± 0.1 µM	2.2 ± 0.1 µM			92 ± 9.9	75 ± 8.2	98 ± 8.6	90 ± 9.3									low efficacy
Cc1ccc(Cn2cccc2/C=C/C(=O)/C=C(\O)C(=O)O)cc1 [Compound 1c]	79 ± 3.9	44.4 ± 2.6	0.8 µM and 0.82 µM	0.9 ± 0.07 µM	85 ± 9.1	73 ± 5.5	115 ± 10.8	48 ± 4.1	59 ± 4.5	17 ± 0.9	96 ± 8.5	53 ± 5.9				two orders of magnitude selective			significant antiproliferative activity
